Patent publication US11096951B2, “Prebiotic composition containing butyryl-fructooligosaccharides” (priority 2018, dated 2021)

How the values were obtained:
[1] = system: Caco-2 cells; assay: Change in growth of Caco-2 cells depending on medium composition (trypan blue cell count); details: 4 days
Experimental: To avoid main use of glucose as an energy source for cell growth in a standard culture medium of Caco-2 cells containing a high concentration of glucose (4.5 g/L), cellular growth was compared in the presence of a high concentration of glucose (4.5 g/L) and pyruvate using a glucose-free DMEM (Dulbecco's modified Eagle's medium; Gibco BRL, Grand Island, N.Y., USA).
10% (w/v) solutions of NaB, FOS and B-FOS in PBS were prepared and filtered through a 0.2 μm membrane filter. NaB, FOS and B-FOS were each prepared at a concentration of 0.005 to 0.06% (w/v) in a DMEM medium containing high concentrations of glucose (4.5 g/L) and pyruvate (Glu+Pyr+) and a DMEM medium not containing the same (Glu−Pyr−), and were then used for the test.
5×10^5 cells were seeded in a dose of 1.5 mL in a 25 cm^2 flask (SPL Life Science, Pocheon, South Korea) and cultured for 3 days in 37° C., 5% CO2 cell incubator until 50% confluence was obtained. Then, the medium was replaced with a medium supplemented with 0.005 to 0.06% (w/v) of NaB, FOS and B-FOS and then cultured under the same conditions for 4 days. The culture supernatant was harvested for testing and adsorbed cells were washed with PBS twice, were treated with trypsin/EDTA, and were isolated from the flask. […] The control group was a medium supplemented with PBS and a mean of values obtained by repeating tests three times is shown.

[2] = system: E. Faecalis; assay: Analysis of bacterial culture supernatant (TLC, HPLC organic acids); assay type: cell-based, Enterococcus faecalis; details: substance as carbon source
[3] = system: B. catenulatum; assay: Analysis of bacterial culture supernatant (HPLC organic acids); assay type: cell-based, Bifidobacterium catenulatum; details: substance as carbon source
[4] = system: Clostridium butyricum; assay type: cell-based; details: 1% (w/v)
[5] = Cell viability by MTT analysis; assay type: cell-based; details: human, Caco-2 cells, percentage of control
Experimental: MTT analysis was conducted to confirm cytotoxicity derived from B-FOS. 100 μl of Caco-2 cells were seeded at a density of 2,000 cells/well onto a 96-well plate and cultured at 37° C. in a 5% CO2 cell incubator for 48 hours. […] After completion of culture, 20 μl of a 5 mg/mL MTT solution was added to each well, reaction was conducted for 4 hours again and the supernatant was removed. The formed crystal was dissolved in 100 μl of dimethyl sulfoxide (DMSO) and an absorbance at 750 nm was measured using a microplate spectrophotometer. Cell viability was represented as a percentage with respect to the control group with no treatment and a mean of values by repeating the test four times was indicated (FIG. 16).

[6] = system: B. longum RD47; assay: Analysis of bacterial culture supernatant (HPLC organic acids); assay type: cell-based, Bifidobacterium longum; details: substance as carbon source
[7] = system: Bac. Thetaiotaomicron; assay: as above; assay type: cell-based; details: substance as carbon source
[8] = system: all bacteria used for tests; assay: Microbial growth curve (OD600), all bacteria used for tests; assay type: cell-based; details: compared to positive control (glucose)
Experimental: (§1) All strains were obtained from the official institute of strain distribution or by the food microbiology laboratory of Seoul National University. Eight bifidobacteria strains, four Lactobacillus (lactic acid bacteria) strains, lactis KCTC 2013 (Lactococcus lactis subsp. lactis KCTC 2013), and Streptococcus thermophilus KCTC 3779 were sub-cultured in MRS supplemented with 0.05% (w/v) L-cysteine.HCl (de-Mann-Rogosa-Sharpe broth; Difco, Detroit, USA) at 37° C., twice every 18 hours prior to use. Other strains were sub-cultured in BHIB (brain-heart infusion broth; Difco) under the same culture conditions as above prior to use.
(§2) A basal medium used for the bacterial growth test was sugar-free BHIB (MB Cell, Los Angeles, Calif., USA). […]
(§3) In order to remove glucose or other carbon source present in a culture medium of activated bacteria, cultured bacteria were centrifuged (15,000×g, 5 min), the supernatant was discarded and the precipitated bacteria were washed with PBS (pH 7.4) twice. […] Bacterial proliferation was checked by measuring optical density (OD) of the culture solution, absorbance at 600 nm was measured with a microplate reader (BioRad, Hercules, Calif., USA) and a growth curve was made. Bacterial growth was analyzed by comparing maximum OD600 values at a substance concentration of 1% (w/v). […]

[9] = system: L. casei; assay: Analysis of bacterial culture supernatant (HPLC organic acids); assay type: cell-based, Lactobacillus casei; details: substance as carbon source
[10] = system: B. bifidum BGN4; assay: as above; assay type: cell-based, Bifidobacterium bifidum; details: substance as carbon source
[11] = system: E. coli; assay: as above; assay type: cell-based, Escherichia coli; details: substance as carbon source
[12] = system: B. longum BORI; assay: Analysis of bacterial culture supernatant (TLC, HPLC organic acids); assay type: cell-based, Bifidobacterium longum; details: substance as carbon source
[13] = system: Staphylococcus aureus; assay: Microbial growth curve (OD600); assay type: cell-based; details: 1% (w/v)
Experimental: as §1, §2, §3

[14] = system: Bac. Fragilis; assay: Analysis of bacterial culture supernatant (HPLC organic acids); assay type: cell-based; details: substance as carbon source
[15] = system: all strains; assay: Analysis of bacterial culture supernatant (HPLC organic acids), all strains; assay type: cell-based; details: medium containing the substance

With `CCCC(=O)[O-].[Na+]` [NaB, Sodium Butyrate] the “decrease in the number of cells as compared to the control group” value (from here on “decrease in the number of cells”) ([1]; Glu+Pyr+ medium, 0.005% (w/v)) was “about 30%”, the “decrease in the number of cells” value ([1]; Glu+Pyr+ medium, 0.04% (w/v)) was ~50% and the “decrease in the number of cells” value ([1]; Glu+Pyr+ medium, 0.06% (w/v)) was ~65%. The “number of cells vs control group” value ([1]; Glu−Pyr− medium, 0.005% (w/v)) was “increased”, the “number of cells vs control group” value ([1]; Glu−Pyr− medium, 0.02% (w/v)) was “increased” and the “number of cells vs control group” value ([1]; Glu−Pyr− medium, 0.04% (w/v)) was “no significant difference”. For the same compound, the “decrease in the number of cells” value ([1]; Glu−Pyr− medium, 0.06% (w/v)) was 35%, the Acetic acid [2] was “+ (0.05% (v/v) or less)” and the Butyric acid [2] was “+++ (no more than 0.25% (v/v))”. For the same compound, the Lactic acid [2] was “+ (0.05% (v/v) or less)”, the Acetic acid [3] was “+ (0.05% (v/v) or less)” and the Butyric acid [3] was “+++ (no more than 0.25% (v/v))”. The Lactic acid [3] was “++ (0.05% (v/v) − 0.25% (v/v))”, the growth of bacteria ([4]; vs negative control) was “significantly inhibited” and the “maximum OD600” value ([4]; negative control OD600=0.49) was 0.42. For the same compound, the viability at 48 h, 0.1 % (w/v) ([5]; after 48 hours) was 81 ± 15%, the viability at 72 h, 0.1 % (w/v) ([5]; after 72 hours) was 45 ± 6.9% and the Acetic acid [6] was “+ (0.05% (v/v) or less)”. The Butyric acid [6] was “+++ (no more than 0.25% (v/v))”, the Lactic acid [6] was “+ (0.05% (v/v) or less)” and the Acetic acid [7] was “+ (0.05% (v/v) or less)”. For the same compound, the Butyric acid [7] was “+++ (no more than 0.25% (v/v))”, the Lactic acid [7] was “−” and the “growth / use by bacteria used for tests” value [8] was “could not be grown well”. The Acetic acid [9] was “+ (0.05% (v/v) or less)”, the Butyric acid [9] was “+++ (no more than 0.25% (v/v))” and the Lactic acid [9] was “+ (0.05% (v/v) or less)”. For the same compound, the Acetic acid [10] was “+ (0.05% (v/v) or less)”, the Butyric acid [10] was “+++ (no more than 0.25% (v/v))” and the Lactic acid [10] was “+ (0.05% (v/v) or less)”. The Acetic acid [11] was “+ (0.05% (v/v) or less)”, the Butyric acid [11] was “+++ (no more than 0.25% (v/v))” and the Lactic acid [11] was “−”. For the same compound, the Acetic acid [12] was “+ (0.05% (v/v) or less)”, the Butyric acid [12] was “+++ (no more than 0.25% (v/v))” and the Lactic acid [12] was “+ (0.05% (v/v) or less)”. The growth of bacteria ([13]; vs negative control) was “significantly inhibited”, the “maximum OD600” value ([13]; negative control OD600=0.36) was 0.25 and the Acetic acid [14] was “+ (0.05% (v/v) or less)”. For the same compound, the Butyric acid [14] was “+++ (no more than 0.25% (v/v))”, the Lactic acid [14] was “+ (0.05% (v/v) or less)” and the “butyric acid in culture solutions (HPLC)” value [15] was “detected”.
